Assays:
CXCR4 = biological target: T1, CXCR4 (Homo sapiens, UniProt P61073); assay: Inhibition of SDF-1 ligand binding or chemotaxis assay for CXCR4; settings: first (or only) activity listed in CXCR4/CXCR7; chemotaxis assay or binding assays
T1 construct: endogenous in cells; host or cells: CEM-Nkr, CCRF-CEM (ATCC #CCL-119), Jurkat (ATCC #TIB-152), Molt-4 (ATCC# CRL-1582); IL-2 stimulated lymphocytes from human blood
Experimental: CEM-Nkr, CCRF-CEM (ATCC #CCL-119), Jurkat (ATCC #TIB-152), Molt-4 (ATCC# CRL-1 582), cell lines, all endogenously expressing CXCR4, were used in compound screening and subsequent assays. These cell lines were cultured as a suspension in RPMI-1640 medium supplemented with 2 mM L-glutamine, 1.5 g/L sodium bicarbonate, 4.5 g/L glucose, 10 mM HEPES, 1 mM sodium pyruvate, and 10% FBS. Cells were grown under 5% CO2/95% air, 100% humidity at 37° C. and subcultured twice weekly at 1:6 (cells were cultured at a density range of 1×10^5 to 2×10^6 cells/mL) and harvested at 1×10^6 cells/mL.
Il-2 stimulated lymphocytes were isolated from fresh human blood using density separation and centrifigation. Briefly, whole blood is incubated with equal parts 3% dextran and allowed to separate for 45 minutes. After separation, the top layer is then layered on top of 15 mls of Ficoll (15 mls of Ficoll for every 30 mls of blood suspension) and centrifuged for 30 minutes at 400×g with no brake. The pellet at the bottom of the tube is then isolated and resuspended into PharmLyse RBC Lysis Buffer (BD Biosciences, San Jose, Calif.) after which the sample is again centrifuged for 10 minutes at 400×g with brake. The remaining cell pellet is resuspended as appropriate and stimulated with PHA for 2 days, followed by culturing in the presence of human IL-2 cytokine.
Cells were centrifuged and resuspended in assay buffer (20 mM HEPES pH 7.1, 140 mM NaCl, 1 mM CaCl2, 5 mM MgCl2, and with 0.2% bovine serum albumin) to a concentration of 4×10^6 cells/mL for cell lines. Binding assays were set up as follows. 0.15 mL of cells (6×10^5 cells/well) was added to the assay plates containing the compounds, giving a final concentration of ˜2-10 μM each compound for screening (or part of a dose response for compound IC50 determinations). Then 0.1 mL of ^125I labeled SDF-1α (obtained from Perkin Elmer Life Sciences, Boston, Mass.) diluted in assay buffer to a final concentration of ˜[…], yielding ˜30,000 cpm per well, was added, the plates sealed and incubated for approximately 3 hours at 4° C. on a shaker platform. Reactions were aspirated onto GF/B glass filters pre-soaked in 0.3% polyethyleneimine (PEI) solution, on a vacuum cell harvester (Packard Instruments; Meriden, Conn.). Scintillation fluid (40 μl; Microscint 20, Packard Instruments) was added to each well, the plates were sealed and radioactivity measured in a Topcount scintillation counter (Packard Instruments). Control wells containing either diluent only (for total counts) or excess SDF1a (1 μg/mL, for non-specific binding) were used to calculate the percent of total inhibition for compound. The computer program Prism from Graph Pad, Inc. (San Diego, Calif.) was used to calculate IC50 values. IC50 values are those concentrations required to reduce the binding of radiolabeled SDF-1α to the receptor by 50%. (For further descriptions of ligand binding and other functional assays, see Dairaghi, et al., J. Biol. Chem. 274:21569-21574 (1999), Penfold, et al., Proc. Natl. Acad. Sci. USA. 96:9839-9844 (1999), and Dairaghi, et al,. J. Biol. Chem. 272:28206-28209 (1997)).
Chemotaxis assays were performed using 5 μm pore polycarbonate, polyvinylpyrrolidone-coated filters in 96-well chemotaxis chambers (Neuroprobe; Gaithersburg, Md.) using chemotaxis buffer (Hank's balanced salt solution (HBSS) and 1% FBS). CXCR4 ligand (i.e., SDF1a, R&D Systems; Minneapolis, Minn.) are use to evaluate compound mediated inhibition of CXCR4 mediated migration. Other chemokines (i.e., TECK; R&D Systems; Minneapolis, Minn.) are used as specificity controls. The lower chamber was loaded with 29 μl of chemokine (i.e., 0.1 nM SDF1a); the top chamber contained 50,000 Jurkat cells or IL-2 lymphocytes in 20 μl. […]

CCXCKR2 (CXCR7) = biological target: T2, CCXCKR2 (CXCR7) (Homo sapiens, UniProt P25106); assay: Displacement of 125I SDF-1 from CCXCKR2 (CXCR7) on MCF-7 and/or MDA-MB-435S cells; format: binding; settings: second activity CXCR4/CXCR7
T2 construct: expressed in transfected cells; host or cells: MDA-MB-435S transfected with pcDNA3.1(+)-hRDC1 (G418 selected) and/or MCF-7 (endogenous receptor)
Experimental: The ability of the compounds to displace the labeled chemokine from the CCXCKR2 receptor sites at multiple concentrations was then determined with the screening process.
Reagents and Cells. […] SDF-1 was purchased from Perkin-Elmer Life Sciences, Inc. (Boston, Mass.). The MCF-7 (adenocarcinoma; mammary gland) cell line was obtained from the American Type Culture Collection (Manassas, Va.) or and was cultured in DMEM (Mediatech, Herudon, Va.) supplemented with 10% fetal bovine serum (FBS) (HyClone Logan, Utah) and bovine insulin (0.01 mg/mL) (Sigma, St. Louis, Mo.) at 37° C. in a humidified incubator at a 5% CO2/air mixture. CCXCKR2 transfected MDA-MB-435S were produced as described below. MDA-MB-435S human breast cancer line, was purchased from ATCC, and cultured in DMEM/10% FBS medium. The complete coding sequence of the gene encoding CCXCKR2 (a.k.a.CXCR7, hRDC1), was isolated from MCF-7 cells using μMACs mRNA isolation kit (Miltenyi Biotec, Auburn, Calif.). DNA contamination was removed by DNase digestion via RNeasy columns (Qiagen, Inc., Valencia, Calif.) and cDNA was generated using GeneAmp RNA PCR Core Kit (Applied Biosystems, Foster City, Clif.). PCR of cDNA samples was performed using Taq PCR Master Mix kit (Qiagen, Inc.) and hRDC1 primers harboring 5′ and 3′ Not I sites (hRDC1F 5′ […]-3′ (SEO ID NO:11), hRDC1R 5′-[…]-3′ (SEO ID NO: 12)) Not I digested PCR product was ligated into Not I digested pcDNA3.1 (+)(Invitrogen, Carlsbad, Calif.) and screened for orientation and sequence confirmed. Plasmid DNA was then isolated from overnight bacterial cultures by Maxiprep (Qiagen, Inc.). Plasmid DNA (10μg) was added to MDA-MB-435s cells and cells were electroporated (0.22 kV, 960uF) via Gene Pulser (Biorad laboratories, Hercules, Calif.). 48 hr post-electroporation, cells were transferred to selection medium (1000 ug/ml G418).
Binding Analysis. Target compounds were tested to determine their ability to bind with CCXCKR2 sites on MCF-7 and/or MDA-MB-435S cells. Efficiency-maximized radioligand binding using filtration protocols as described in Dairaghi D J, et al., HHV8-encoded vMIP-I selectively engages chemokine receptor CCR5. Agonist and antagonist profiles of viral chemokines, J. Biol. Chem. Jul. 30, 1999; 274(31): 21569-74 and Gosling J, et al., Cutting edge: identification of a novel chemokine receptor that binds dendritic cell-i and T cell-active chemokines including ELC, SLC, and TECK., J. Immunol. Mar. 15, 2000; 164(6):2851-6 was used.
In these assays, MCF-7 and/or MDA-MB-435S cells were interrogated with the target compounds and the ability of these compounds to displace ^125I radiolabeled SDF-1 was assessed using the protocol described in Dairaghi and Gosling. The target compounds were added to the plate to the indicated concentration and were then incubated with cells followed by the addition of radiolabeled chemokine (^125I SDF-1) for 3 hr at 4° C. in the following binding medium (25 mM HEPES, 140 mM NaCl, 1 mM CaCl2, 5 mM MgCl2 and 0.2% bovine serum albumin, adjusted to pH 7.1). All assays were then incubated for 3 hrs at 4° C. with gentle agitation. Following incubation in all binding assays, reactions were aspirated onto PEI-treated GF/B glass filters (Packard) using a cell harvester (Packard) and washed twice (25 mM HEPES, 500 mM NaCl, 1 mM CaCl2, 5 mM MgCl2, adjusted to pH 7.1). Scintillant (MicroScint 10, Packard) was added to the wells, and the filters were counted in a Packard Topcount scintillation counter. Data were analyzed and plotted using Prism (GraphPad Prism version 3.0a for Macintosh, GraphPad Software, www.graphpad.com).

T1 sequence (P61073 whole entry): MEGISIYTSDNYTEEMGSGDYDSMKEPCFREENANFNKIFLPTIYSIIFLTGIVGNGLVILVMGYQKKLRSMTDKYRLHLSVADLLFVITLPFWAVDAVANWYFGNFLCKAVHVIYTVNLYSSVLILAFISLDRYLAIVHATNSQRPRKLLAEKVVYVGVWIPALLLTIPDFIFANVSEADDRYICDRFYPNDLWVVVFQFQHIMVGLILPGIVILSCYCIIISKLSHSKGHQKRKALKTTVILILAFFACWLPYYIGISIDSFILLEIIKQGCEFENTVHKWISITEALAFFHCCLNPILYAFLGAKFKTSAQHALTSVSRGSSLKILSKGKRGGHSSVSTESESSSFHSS
T2 sequence (P25106 whole entry): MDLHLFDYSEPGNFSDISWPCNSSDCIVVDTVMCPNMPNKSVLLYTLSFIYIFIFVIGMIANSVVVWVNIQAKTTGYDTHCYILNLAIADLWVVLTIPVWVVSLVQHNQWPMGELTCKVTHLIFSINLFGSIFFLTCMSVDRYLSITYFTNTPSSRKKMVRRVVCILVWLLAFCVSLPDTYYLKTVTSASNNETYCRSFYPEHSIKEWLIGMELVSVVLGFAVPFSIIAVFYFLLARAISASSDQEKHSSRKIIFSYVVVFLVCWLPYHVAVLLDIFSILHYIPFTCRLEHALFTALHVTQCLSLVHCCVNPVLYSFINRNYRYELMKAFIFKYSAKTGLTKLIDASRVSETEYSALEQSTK

Structure (SMILES) | IC50 (CXCR4) [nM] | IC50 (CCXCKR2 (CXCR7)) [nM]
Cc1ccc2oc(=O)c3cnn(CC(=O)NCCN(C)C4CCCCC4)c3c2c1 [Compound 1] | 1000 to 10000 | < 1000
COc1ccc2oc(=O)c3cnn(CC(=O)NCCN(C)C4CCCCC4)c3c2c1 [Compound 24] | < 1000 | < 1000
Cc1ccc2c(c1)-c1c(cnn1CC(=O)NCCN(C)C1CCCCC1)CO2 [Compound 2] | 1000 to 10000 | < 1000

Next, values leading:

IC50 (CXCR4) [nM] | IC50 (CCXCKR2 (CXCR7)) [nM] | Structure (SMILES)
1000 to 10000 | < 1000 | COc1ccc2c(c1)c1c(cnn1CC(=O)NCCN(C)C1CCCCC1)c(=O)n2C [Compound 30]
> 10000 | < 1000 | COc1ccc2c(c1)c1c(cnn1CC(=O)NCCNC1CCCCC1)c(=O)n2C [Compound 31]
